In patent US20260027221A1, “Targeted Pyrrolobenzodiazapine Conjugates” (BeOne Medicines I GmbH, priority 2023, published 2026) one finds EC50 and Emax data, which are given here for seven compounds.

Some results are limits rather than exact numbers.

The subject of one assay is A375 cells. The assay is described as follows: Compounds cellular killing in A375 cancer line (Cell Titer-Glo, 6 days). In kind it is cell-based, human. As to conditions: Homo sapiens, A-375, 144 h, 6 days incubation, cell viability by Cell Titer-Glo. Here is the method: A375 (ATCC, CRL-1619). […] The base medium for A375 is DMEM, high glucose, GlutaMAX™ Supplement (Gibco, 10566024). To make the complete growth medium, fetal bovine serum was added to the base mediumat a final concentration of 10% (Gibco, 10099-141C). The cell line was grown in a humidified 5% CO2 atmosphere at 37° C., and was regularly tested for the presence of mycoplasma with MycoAlert™ PLUS Mycoplasma Detection Kit (Lonza, LT07-710).
(§1) Payload direct killing by compounds 1-1 to 1-22 was assessed in A375 and Calu-6 cancer cell lines. Cells were seeded at 1E3/well (A375) 2E3/well (Calu-6) into 96-well plates (Greiner: 655090), 100 μL/well, and incubated at 37° C., 5% CO2, overnight. Fresh growth medium was added containing varying concentrations of compounds, 50 μL/well, and incubated at 37° C., 5% CO2, for 6 days. The cell viability detected by Cell Titer-Glo (Promega, G7573), 70 μL/well. The plates were allowed to incubate at room temperature for 10 minutes to stabilize the luminescent signal. The plates were analyzed with a microplate reader.
For orientation: In ATP-based viability assays light output follows the ATP content of the culture.

Another assay deals with Calu-6 cells. The assay is described as follows: Compounds cellular killing in Calu-6 cancer line (Cell Titer-Glo, 6 days). In kind it is cell-based, human. As to conditions: Homo sapiens, Calu-6, 144 h, 6 days incubation, cell viability by Cell Titer-Glo. Here is the method:
Calu-6 (ATCC, HTB-56). […] The base medium for Calu-6 is Eagle's Minimum Essential Medium (ATCC, 30-2003). To make the complete growth medium, fetal bovine serum was added to the base mediumat a final concentration of 10% (Gibco, 10099-141C). The cell line was grown in a humidified 5% CO2 atmosphere at 37° C., and was regularly tested for the presence of mycoplasma with MycoAlert™ PLUS Mycoplasma Detection Kit (Lonza, LT07-710).
as §1

The term EC50 denotes the concentration at which the effect is half-maximal. Read a low EC50 as higher potency in that assay. In the assay with A375 cells, `COc1cc2c(cc1OCc1cccc(COc3cc4c(cc3OC)C(=O)N3CC5(CC5)C[C@H]3C=N4)c1)N=C[C@@H]1CC3(CC3)CN1C2=O` [Compound 1-8, (11aS,11a″S)-8,8″-((1,3-phenylenebis(methylene))bis(oxy))bis(7-methoxy-1,11a-dihydro-3H,5H-spiro[benzo[e]pyrrolo[1,2-a][1,4]diazepine-2,1′-cyclopropan]-5-one)] yielded an EC50 of 0.029 nM and an Emax of 99.2%. Further, in the assay on Calu-6 cells, the response was half-maximal at 0.005 nM (EC50) and the Emax was found to be 98.4%.

As for `COc1cc2c(cc1OCCCCCOc1cc3c(cc1OC)C(=O)N1CC4(CC4)C[C@H]1C=N3)N=C[C@@H]1Cc3ccccc3CN1C2=O` [Compound 1-1, (S)-2-methoxy-3-((5-(((S)-7-methoxy-5-oxo-5,11a-dihydro-1H,3H-spiro[benzo[e]pyrrolo[1,2-a][1,4]diazepine-2,1′-cyclopropan]-8-yl)oxy)pentyl)oxy)-7,12-dihydrobenzo[5,6][1,4]diazepino[1,2-b]isoquinolin-14(6aH)-one], in the assay on A375 cells, the response was half-maximal at 0.005 nM (EC50) and the Emax worked out at 99.8%. Moreover, in the assay on Calu-6 cells, the EC50 is 0.002 nM and the Emax came out at 99.5%.

Consider `COc1cc2c(cc1OCCCCCOc1cc3c(cc1OC)C(=O)N1Cc4ccccc4C[C@H]1C=N3)N=C[C@@H]1CC3(CCN1C2=O)CC3` [Compound 1-20, (S)-2-methoxy-3-((5-(((S)-2-methoxy-12-oxo-6a,9,10,12-tetrahydro-7H-spiro[benzo[e]pyrido[1,2-a][1,4]diazepine-8,1′-cyclopropan]-3-yl)oxy)pentyl)oxy)-7,12-dihydrobenzo[5,6][1,4]diazepino[1,2-b]isoquinolin-14(6aH)-one], for which, in the assay on A375 cells, a half-maximal response (EC50) required 0.064 nM and the Emax is 95.9%. In addition, in the assay on Calu-6 cells, the EC50 was 0.016 nM and the Emax was found to be 98.3%.

Take `COc1cc2c(cc1OCc1cccc(COc3cc4c(cc3OC)C(=O)N3CC5(CC5)C[C@H]3CN4)c1)NC[C@@H]1CC3(CC3)CN1C2=O` [Compound 1-10]: in the assay on A375 cells, the EC50 is > 1 nM and the Emax is 42%. In addition, in the assay on Calu-6 cells, the EC50 worked out at 0.358 nM and the Emax was 84.7%.

Regarding `COc1cc2c(cc1OCCNCCOc1cc3c(cc1OC)C(=O)N1CC4(CC4)C[C@H]1C=N3)N=C[C@@H]1CC3(CC3)CN1C2=O` [Compound 1-13, (11aS,11a″S)-8,8″-((azanediylbis(ethane-2,1-diyl))bis(oxy))bis(7-methoxy-1,11a-dihydro-3H,5H-spiro[benzo[e]pyrrolo[1,2-a][1,4]diazepine-2,1′-cyclopropan]-5-one)], in the assay on A375 cells, the EC50 stood at 9.12 nM and the Emax amounted to 100%. In addition, in the assay on Calu-6 cells, the midpoint of the response, the EC50, lay at 1.62 nM and the Emax stood at 99.7%.

As for `COc1cc2c(cc1OCCCCCOc1cc3c(cc1OC)C(=O)N1CC4(CC4)C[C@H]1C=N3)N=C[C@@H]1CCCCN1C2=O` [Compound 1-16, (S)-7-methoxy-8-((5-(((S)-2-methoxy-12-oxo-6a,7,8,9,10,12-hexahydrobenzo[e]pyrido[1,2-a][1,4]diazepin-3-yl)oxy)pentyl)oxy)-1,11a-dihydro-3H,5H-spiro[benzo[e]pyrrolo[1,2-a][1,4]diazepine-2,1′-cyclopropan]-5-one], the EC50 was 0.146 nM in the assay with A375 cells and 0.038 nM in the assay on Calu-6 cells. Further, the Emax in the assay with A375 cells turned out to be 89.6%; with Calu-6 cells, 92.3%.

In the assay with A375 cells, `C=C1C[C@H]2C=Nc3cc(OCCNCCOc4cc5c(cc4OC)C(=O)N4CC(=C)C[C@H]4C=N5)c(OC)cc3C(=O)N2C1` [Compound 1-21, (11aS,11a'S)-8,8′-((azanediylbis(ethane-2,1-diyl))bis(oxy))bis(7-methoxy-2-methylene-1,2,3,11a-tetrahydro-5H-benzo[e]pyrrolo[1,2-a][1,4]diazepin-5-one)] registered an EC50 of 4.2 nM and an Emax of 97.8%. Besides, in the assay with Calu-6 cells, the EC50 was 1.2 nM and the Emax was 99.3%.
